Molecular target: biotinylated KRAS G12C protein (GMP-PNP loaded) and GST-tagged Ras binding domain of c-RAF (Homo sapiens, UniProt P01116, C118S/C51S/C80L/G12C)
Assay: RAS:RAF-RBD binding assay (TR-FRET)
Details: 30-minute incubation of compound with KRAS G12C before RAF-RBD; Table 4; read-out: IC50

Sequence of biotinylated KRAS G12C protein (GMP-PNP loaded) and GST-tagged Ras binding domain of c-RAF (P01116 with tags, fused parts or gaps isoform P01116-2 G12C/C51S/C80L/C118S): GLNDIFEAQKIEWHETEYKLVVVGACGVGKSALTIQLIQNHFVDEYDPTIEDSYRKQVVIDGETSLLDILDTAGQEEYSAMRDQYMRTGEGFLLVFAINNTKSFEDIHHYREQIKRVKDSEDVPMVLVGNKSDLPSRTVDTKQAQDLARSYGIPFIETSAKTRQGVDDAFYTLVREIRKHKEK

SMILES | IC50 [nM]
Cc1nc2c3c(c(C(F)(F)F)cc2n1C)-c1cccn2c(C(=O)c4cc(F)c(NC(=O)/C=C/C5CCCN5)c(F)c4)cc(c12)CCO3 (single isomer, unassigned) [Example 250, (E)-N-(4-(9,10-dimethyl-7-(trifluoromethyl)-13,14-dihydro-9H-imidazo-[4″,5″:5′,6′]benzo[1′,2′: 2,3]oxocino[4,5,6-hi]-dolizine-2-carbonyl)-2,6-difluorophenyl)-3-(pyrrol-idin-2-yl)acrylamide] | 54.9
Cc1nc2c3c(c(C(F)(F)F)cc2n1C)-c1cccn2c(C(=O)c4cc(F)c(NC(=O)/C=C/C5CCCN5)c(F)c4)cc(c12)CCO3 (single isomer, unassigned) [Example 251, (E)-N-(4-(9,10-dimethyl-7-(trifluoromethyl)-13,14-dihydro-9H-imidazo-[4″,5″:5′,6′]benzo[1′,2′: 2,3]oxocino[4,5,6-hi]-indolizine-2-carbonyl)-2,6-difluorophenyl)-3-(pyrrolidin-2-yl)acryl-amide] | 16.7
Cc1nc2c3c(c(C(F)(F)F)cc2n1C)-c1cccn2c(C(=O)c4cc(F)c(NC(=O)/C=C/CN5CCC[C@@]5(C)C(C)O)c(F)c4)cc(c12)CCO3 (single isomer, unassigned) [Example 258] | 6.69
Cc1nc2c3c(c(C(F)(F)F)cc2n1C)-c1cccn2c(C(=O)c4cc(F)c(NC(=O)/C=C/CN5CCC[C@@]5(C)C(C)O)c(F)c4)cc(c12)CCO3 (single isomer, unassigned) [Example 259] | 14.2
Cc1nc2c3c(c(C(F)(F)F)cc2n1C)-c1cccn2c(C(=O)c4cc(F)c(NC(=O)/C=C/CNC5CCOC5)c(F)c4)cc(c12)CCO3 (single isomer, unassigned) [Example 269, (E)-N-(4-(9,10-dimethyl-7-(trifluoromethyl)-13,14-dihydro-9H-imidazo-[4″,5″:5′,6′]benzo[1′,2′: 2,3]oxocino[4,5,6-hi]-indolizine-2-carbonyl)-2,6-difluorophenyl)-4-((tetrahydrofuran-3-yl)-amino)but-2-enamide] | 9.82
Cc1nc2c3c(c(C(F)(F)F)cc2n1C)-c1cccn2c(C(=O)c4cc(F)c(NC(=O)/C=C/CNC5CCOC5)c(F)c4)cc(c12)CCO3 (single isomer, unassigned) [Example 270, (E)-N-(4-(9,10-dimethyl-7-(trifluoromethyl)-13,14-dihydro-9H-imidazo-[4″,5″:5′,6′]benzo[1′,2′: 2,3]oxocino[4,5,6-hi]-indolizine-2-carbonyl)-2,6-difluorophenyl)-4-((tetrahydrofuran-3-yl)-amino)but-2-enamide] | 12
CC1Cc2cc(C(=O)c3cc(F)c(NC(=O)/C=C/CN[C@H]4CCOC4)c(F)c3)n3cccc(c23)-c2c(C(F)(F)F)cc3c(ncn3C)c2O1 (single isomer, unassigned) [Example 271] | 13.6
Cc1nc2c3c(c(C(F)(F)F)cc2n1C)-c1cccn2c(C(=O)c4cc(F)c(NC(=O)/C=C/CNC5(C)COC5)c(F)c4)cc(c12)CC(C)O3 (single isomer, unassigned) [Example 272, mono((E)-2-(3,5-difluoro-4-(4-((3-methyloxetan-3-yl)ammonio)but-2-en-amido)benzoyl)-9,10,13-trimethyl-7-(trifluoro-methyl)-13,14-dihydro-9H-imidazo[4″,5″:5′,6′]-benzo[1′,2′:2,3]oxocino-[4,5,6-hi]indolizin-11-ium) mono(2,2,2-trifluoroacetate)] | 14.9
Cc1nc2c3c(c(C(F)(F)F)cc2n1C)-c1cccn2c(C(=O)c4cc(F)c(NC(=O)/C=C/CNC5(C)COC5)c(F)c4)cc(c12)CC(C)O3 (single isomer, unassigned) [Example 273, mono((E)-2-(3,5-difluoro-4-(4-((3-methyloxetan-3-yl)ammonio)but-2-en-amido)benzoyl)-9,10,13-trimethyl-7-(trifluorometh-yl)-13,14-dihydro-9H-imidazo[4″,5″:5′,6′]benzo-[1′,2′:2,3]oxocino[4,5,6-hi]indolizin-11-ium) mono(2,2,2-trifluoro-acetate)] | 30.1
Cc1nc2c3c(c(C(F)(F)F)cc2n1C)-c1cccn2c(C(=O)c4cc(F)c(NC(=O)/C=C/CN5CC6C(CO)C6C5)c(F)c4)cc(c12)CCO3 (single isomer, unassigned) [Example 278, (E)-3-(4-((4-(9,10-dimeth-yl-7-(trifluoromethyl)-13,14-dihydro-9H-imidazo-[4″,5″:5′,6′]-benzo[1′,2′:2,3]oxocino-[4,5,6-hi]indolizine-2-carbonyl)-2,6-difluoro-phenyl)amino)-4-oxobut-2-en-1-yl)-6-(hydroxy-methyl)-3-azabicyclo-[3.1.0]hexan-3-ium 2,2,2-trifluoroacetate] | 44.3
CN1CCc2cc(C(=O)c3cc(F)c(NC(=O)/C=C/CNC4(C)COC4)c(F)c3)n3cccc(c23)-c2c(C(F)(F)F)cc3nn(C)cc3c21 (single isomer, unassigned) [Example 282, (E)-N-(4-((4-(10,12-dimethyl-7-(trifluorometh-yl)-10,12,13,14-tetrahydro-indolizino[8′,1′:4,5,6]-azocino[2,3-e]indazole-2-carbonyl)-2,6-difluoro-phenyl)amino)-4-oxobut-2-en-1-yl)-3-methyloxetan-3-aminium 2,2,2-trifluoro-acetate] | 57.6
Cc1nc2c3c(c(C(F)(F)F)cc2n1C)-c1cccn2c(C(=O)c4cc(F)c(NC(=O)/C=C/CN5CC6(CCOC6)C5)c(F)c4)cc(c12)CCO3 (single isomer, unassigned) [Example 284] | 40.4
COCc1nc2c3c(c(OC)cc2n1C)-c1cccn2c(C(=O)c4cc(F)c(NC(=O)/C=C/CN5CC6(CCCOC6)C5)c(F)c4)cc(c12)CCN3C (single isomer, unassigned) [Example 292, mono((E)-2-(4-((2,6-difluoro-4-(7-methoxy-10-(methoxymethyl)-9,12-dimethyl-9,12,13,14-tetra-hydroimidazo[4″,5″: 5′,6′]benzo[1′,2′:2,3]azo-cino[4,5,6-hi]indolizin-11-ium-2-carbonyl)phenyl)-amino)-4-oxobut-2-en-1-yl)-6-oxa-2-azaspiro[3.5]-nonan-2-ium) mono(2,2,2-trifluoroacetate)] | 84.9
Cc1nc2c3c(c(C(F)(F)F)cc2n1C)-c1cccn2c(C(=O)c4cc(F)c(NC(=O)/C=C/CN5CCC5CC(C)(C)O)c(F)c4)cc(c12)CCN3C (single isomer, unassigned) [Example 298, (E)-1-(4-((2,6-difluoro-4-(9,10,12-trimethyl-7-(trifluoromethyl)-9,12,13,14-tetrahydro-imidazo[4″,5″:5′,6′]benzo-[1′,2′:2,3]azocino[4,5,6-hi]indolizine-2-carbonyl)-phenyl)amino)-4-oxobut-2-en-1-yl)-2-(2-hydroxy-2-methylpropyl)azetidin-1-ium 2,2,2-trifluoro-acetate] | 41.6
Cc1nc2c3c(c(C(F)(F)F)cc2n1C)-c1cccn2c(C(=O)c4cc(F)c(NC(=O)/C=C/CN5CCC5CC(C)(C)O)c(F)c4)cc(c12)CCN3C (single isomer, unassigned) [Example 299, (E)-1-(4-((2,6-difluoro-4-(9,10,12-trimethyl-7-(trifluoromethyl)-9,12,13,14-tetrahydro-imidazo[4″,5″:5′,6′]benzo-[1′,2′:2,3]azocino[4,5,6-hi]indolizine-2-carbonyl)-phenyl)amino)-4-oxobut-2-en-1-yl)-2-(2-hydroxy-2-methylpropyl)azetidin-1-ium 2,2,2-trifluoroacetate] | 52.5

Reference: patent US20240262842A1, “SMALL MOLECULE INHIBITORS OF KRAS G12C MUTANT” (Merck Sharp & Dohme LLC, priority 2021, published 2024)
